This experiment has as its system normal human melanocytes. The experiment is described as follows: Melanin production inhibition test using cultured normal human melanocytes (14C-thiouracil incorporation). Format: cell-based. Particulars: control = 100%; for activity at 3.1 µM: addition amount 3.1 μM; for activity at 5 µM: addition amount 5.0 μM; for activity at 10 µM: addition amount 10 μM; for activity at 20 µM: addition amount 20 μM; for activity at 8 µM: addition amount 8.0 μM; for activity at 1.6 µM: addition amount 1.6 μM. The method, then:
The inhibitory effect on melanin production of the melanin production inhibitor of the present invention can be measured using thiouracil which is incorporated specifically into cells in a melanin synthesis process in the cells. For example, the amount of melanin production can be measured by measuring an amount of thiouracil incorporated into cells by measuring an amount of radiation with radiolabeled thiouracil.
The inhibitory effect on melanin production of Compound 1 was evaluated using 2-thiouracil (^14C-labeled 2-thiouracil was used in this test) which is incorporated specifically into melanin in an intracellular melanin synthesis process. Complete medium for culture of melanocytes (manufactured by Kurabo Industries Ltd.) was added to 15 wells in a 24-well plate in an amount of 2 mL per well, and normal human melanocytes (manufactured by Kurabo Industries Ltd.) were seeded into the wells at a concentration of 1.5×10^4 cells/cm^2. The cells were cultured in a 5% carbon dioxide atmosphere at 37° C. for 24 hours. Thereafter, the medium in all the wells was exchanged under the following conditions: fresh complete medium for culture of melanocytes (control) was used in three wells; each of complete medium for culture of melanocytes, which including Compound 1 at concentrations of 1.0 μM, 2.0 μM, and 4.0 μM, was used in a total of nine wells including three wells for each concentration; and complete medium for culture of melanocytes, each of which including arbutin (positive control) known as a melanin production inhibitor at a concentration of 0.5 mM (500 μM), was used in the other three wells. Further, 2-[2-^14C]thiouracil (^14C-labeled thiouracil) was added to each of these 15 wells at 0.25×10^−6 Ci (curie). Then, the cells were cultured for further 3 days under the same conditions as the above. After the completion of culture, the culture medium was removed from the wells, and the cells were washed with phosphate buffered physiological saline (PBS) and then separated from the bottoms of the wells with medium including trypsin and EDTA to prepare cell suspensions, followed by centrifugation to collect the cells. The number of the cells was counted using a hemocytometer. Thereafter, the amounts of ^14C-thiouracil in the cells collected from each well (0.25×10^−6 Ci) were measured using a liquid scintillation counter (ALOKA CO., LTD.). The percentages of an amount of radioactivity in the cells cultured in the medium including the test substances with respect to an amount of radioactivity in the cells collected from the well of the control were calculated as amounts of melanin (%). That is, as the amount of radioactivity incorporated into the cells is smaller, the amount of melanin is evaluated to be smaller, i.e., the melanin inhibition effect of the component added is evaluated to be larger.
Inhibitory effects on melanin production of Compounds 2 to 39 (however, the effects of Compound 9 and 15 were not measured) were examined in the same procedure as in Test Example 1.
These were examined in the same procedure as in Test Example 1.
Further, the results of melanin production inhibition by treatment with the respective test compounds, determined in the same procedure as in Test Example 1, are also shown in the table.

[1] abbreviates: Homo sapiens, Melanocyte, Table 2.

On to `Cc1ccc(C(O)(c2ccccc2)c2ccccc2)cc1` [Compound 24, [diphenyl(4-methylphenyl)]methanol], for which the activity at 3.1 µM under setting [1] stood at 51.6 ± 1.6%.

Under setting [1], `COc1ccc(C(OCCN)(c2ccccc2)c2ccccc2)cc1` [Compound 35, 2-[[diphenyl (4-methoxyphenyl)]methyloxy]ethylamine] came in with an activity at 5 µM of 80.4 ± 8.8%.

Turning to `COc1ccc(C(OCCO)(c2ccccc2)c2ccccc2)cc1` [Compound 31, 2-[[diphenyl(4-methoxyphenyl)]methyloxy]ethanol], the activity at 3.1 µM under setting [1] was 37.6 ± 3.3%.

On to `c1ccc(C(c2ccccc2)(c2ccccc2)N2CCOCC2)cc1` [Compound 8, N-(triphenylmethyl)morpholine], for which the activity at 2.5 µM (Homo sapiens, Melanocyte, Table 2, addition amount 2.5 μM) worked out at 39.2 ± 10.7%.

Molecule `OC[C@H]1O[C@@H](Oc2ccc(O)cc2)[C@H](O)[C@@H](O)[C@@H]1O` [Arbutin, arbutin, reference compound] yielded an activity at 500 µM (Homo sapiens, Melanocyte, addition amount 500 μM, mean ± SD of three samples) of 64.6 ± 2.3%.

As to `COc1ccc(C(O)(c2ccccc2)c2ccc(OC)cc2)cc1` [Compound 18, [bis(4-methoxyphenyl)phenyl]methanol], the activity at 10 µM under setting [1] came to 55.3 ± 3.4%.

`CC(c1ccc(O)cc1)c1ccc(O)cc1` [4,4′-Ethylidenebisphenol] showed an activity at 25 µM (Homo sapiens, Melanocyte, Table 3, addition amount 25 μM) of 30.5 ± 6.1%.

Under setting [1], `OC(c1ccccc1)c1ccc2ccccc2c1` (stereo not shown) [Compound 13, [(naphthyl)phenyl]methanol] had an activity at 20 µM of 68.7 ± 5.2%.

In turn, `Oc1ccc(C(c2ccccc2)(c2ccccc2)c2ccccc2)cc1` [4-Tritylphenol] displayed an activity at 1.25 µM (Homo sapiens, Melanocyte, Table 3, addition amount 1.25 μM) of 27 ± 0.4%.

Under setting [1], `O=C(O)[C@H](CO)NC(c1ccccc1)(c1ccccc1)c1ccccc1` [Compound 39, N-(triphenylmethyl) serine] yielded an activity at 8 µM of 54.9 ± 5.5%.

`COc1ccc(C(NCCO)(c2ccccc2)c2ccccc2)cc1` [Compound 33, 2-[[diphenyl(4-methoxyphenyl)]methylamino]ethanol] had an activity at 5 µM under setting [1] of 67.7 ± 5.1%.

Under setting [1], `COc1ccc(C(OCCO)(c2ccccc2)c2ccc(OC)cc2)cc1` [Compound 32, 2-[bis(4-methoxyphenyl)phenylmethyloxy]ethanol] registered an activity at 3.1 µM of 58.8 ± 7.1%.

`COc1ccc(C(OCCN)(c2ccccc2)c2ccc(OC)cc2)cc1` [Compound 36, 2-[[bis(4-methoxyphenyl)phenyl]methyloxy]ethylamine] returned an activity at 10 µM under setting [1] of 71.7 ± 5.1%.

`c1ccc(C(c2ccccc2)(c2ccncc2)N2CCCCC2)cc1` [Compound 10, 1-{[diphenyl(4-pyridyl)]methyl}piperidine] returned an activity at 0.3 µM (Homo sapiens, Melanocyte, Table 2, addition amount 0.3 μM) of 77.3 ± 0.4%.

`CC(c1ccccc1)(c1ccc(O)cc1)c1ccc(O)cc1` [4,4′-(1-Phenylidene)-bisphenol] returned an Amount of melanin (Table 3, addition amount 3.0 μM) of 44.8 ± 1.0%.

As to `Cc1ccc(C(O)(c2ccc(C)cc2)c2ccc(C)cc2)cc1` [Compound 22, tris(4-methylphenyl)methanol], under setting [1], the activity at 1.6 µM was found to be 50.6 ± 2%.

Consider `Cc1ccc(C(O)(c2ccccc2)c2ccc(C)cc2)cc1` [Compound 23, [bis(4-methylphenyl)phenyl]methanol], for which, under setting [1], the activity at 3.1 µM is 47.2 ± 0.2%.

Regarding `Cc1ccc(C(c2ccccc2)(c2ccccc2)N2CCCCC2)cc1` [Compound 25, [[diphenyl(4-methylphenyl)]methyl]piperidine], under setting [1], the activity at 1.6 µM is 48 ± 1.9%.

Take `COc1ccc(C(NCCO)(c2ccccc2)c2ccc(OC)cc2)cc1` [Compound 34, 2-[[bis(4-methoxyphenyl)phenyl]methylamino]ethanol]: under setting [1], the activity at 5 µM worked out at 71.4 ± 1.9%.

With `OCC(O)COC(c1ccccc1)(c1ccccc1)c1ccccc1` (stereo not shown) [Compound 38, 1,2-dihydroxy-3-(triphenylmethyloxy)propane], under setting [1], the activity at 8 µM came out at 75.6 ± 0.2%.

Turning to `O=C1CCC(=O)N1C(c1ccccc1)(c1ccccc1)c1ccccc1` [Compound 11, 1-(triphenylmethyl)succinimide], for the setting “Homo sapiens, Melanocyte, Table 2, addition amount 15 μM”, the activity at 15 µM was determined as 53.7 ± 0.9%.

For `COc1ccc(C(O)(c2ccccc2)c2ccccc2)cc1` [Compound 17, [diphenyl(4-methoxyphenyl)]methanol], the activity at 10 µM under setting [1] was determined as 37 ± 1.5%.

Turning to `c1ccc(C(c2ccccc2)(c2ccccc2)N2CCNCC2)cc1` [Compound 7, 1-(triphenylmethyl)piperazine], the activity at 6 µM (Homo sapiens, Melanocyte, Table 2, addition amount 6.0 μM) was found to be 51.1 ± 5.8%.

Molecule `Cc1ccc(C(c2ccc(C)cc2)N2CCCC2)cc1` [Compound 29, 1-[bis(4-methylphenyl)methyl]pyrrolidine] showed an activity at 20 µM under setting [1] of 49 ± 1.9%.

In the case of `Oc1ccc(C2(c3ccc(O)cc3)CCCCC2)cc1` [4,4′-Cyclohexylidenebisphenol], the activity at 3 µM (Homo sapiens, Melanocyte, Table 3, addition amount 3.0 μM) stood at 38.3 ± 2.5%.

Turning to `O[C@@H]1CCN(C(c2ccccc2)(c2ccccc2)c2ccccc2)C1` [Compound 12, (R)-1-triphenylmethyl-3-pyrrolidinol], the activity at 5 µM under setting [1] came out at 62.9 ± 3.7%.

Turning to `OCCN(CCO)C(c1ccccc1)(c1ccccc1)c1ccccc1` [Compound 37, N,N-[bis(2-hydroxyethyl)]-N-(triphenylmethyl)amine], the activity at 4 µM (Homo sapiens, Melanocyte, Table 2, addition amount 4.0 μM) is 69.6 ± 3.9%.

As to `COc1ccc(C(c2ccccc2)(c2ccc(OC)cc2)N2CCCCC2)cc1` [Compound 20, 1-[[bis(4-methoxyphenyl)phenyl]methyl]piperidine], the activity at 3.1 µM under setting [1] is 73.2 ± 3.2%.

The molecule `COc1ccc(C(c2ccc(OC)cc2)(c2ccc(OC)cc2)N2CCCCC2)cc1` [Compound 21, 1-[tris(4-methoxyphenyl)methyl]piperidine] yielded an activity at 12.5 µM (Homo sapiens, Melanocyte, Table 2, addition amount 12.5 μM) of 53.5 ± 0.4%.

Molecule `c1ccc(C(c2ccccc2)N2CCCC2)cc1` [Compound 28, 1-(diphenylmethyl)pyrrolidine] registered an activity at 60 µM (Homo sapiens, Melanocyte, Table 2, addition amount 60 μM) of 77.3 ± 5.6%.

Molecule `OC(c1ccccc1)(c1ccccn1)c1ccccn1` [Compound 16, di(2-pyridyl)phenylmethanol] gave an activity at 100 µM (Homo sapiens, Melanocyte, Table 2, addition amount 100 μM) of 91.5 ± 4.6%.

Turning to `CCNC(c1ccccc1)(c1ccccc1)c1ccccc1` [Compound 30, N-(triphenylmethyl)-N-ethylamine], the activity at 8 µM under setting [1] was 41.4 ± 0.7%.

Under setting [1], `Cc1ccc(C(c2ccc(C)cc2)(c2ccc(C)cc2)N2CCCCC2)cc1` [Compound 27, 1-[tris(4-methylphenyl)methyl]piperidine] gave an activity at 3.1 µM of 47.5 ± 0.6%.

In the case of `COc1ccc(C(c2ccccc2)(c2ccccc2)N2CCCCC2)cc1` [Compound 19, 1-[[(4-methoxyphenyl)diphenyl]methyl]piperidine], under setting [1], the activity at 3.1 µM is 51.5 ± 5.7%.

The values are drawn from patent publication US8846012B2, “Melanin production inhibitor” (Pola Chemical Industries Inc., priority 2008, dated 2014).
